Test results reported in paper PMC6240096, “A hPSC-based platform to discover gene-environment interactions that impact human β-cell and dopamine neuron survival” (Nature Communications, 2018).

Columns and labels:
A1AT+ hepatocytes = assay: Inhibition curve on hESC-derived hepatocytes; type: cell-based, human; conditions: cell survival rate, 4 days, n=3
Experimental: hESCs-derived INS^+ cells, MSCs[43], neurons, and hepatocytes[44] were derived based on the reported protocols and re-plated on 96-well plates with Accutase digestion. Cardiomyocytes (CMs) were differentiated from H9-MYH6: mCherry reporter line, based on the reported protocol. After overnight incubation, cells were treated with DMSO or different doses of hit compounds for 4 days. After fixation, the cells were stained with markers for each cell type. DAPI was used to stain cell nuclei. Plates were analyzed by ImageXpress^MICRO Automated High-Content Analysis System.
Supplementary Figure 4. Assessment of the toxic effect of propargite on different type […]
(a) Flow cytometry char acterization of CD29+ and CD73+ mesenchymal stem cells (MSCs) derived from H1 hESCs. (b-c) microscope image (b) and flow cytometry (c) characterization of cardiomyocytes expressing MYH6+ derived from a MYH6:mCherry reporter hESC line. (d-e) Immunocytochemistry characterization of MAP2+/TUJ1+ and HuC/D+/MAP2+ neurons (d) and A1AT+/ASGPR1+ hepatocytes (e) derived from H1 hESCs. All the cells were counterstained by DAPI (blue). Scale bars, 100 µm. (f) Inhibition curve of propargite on pancreatic β-like cells, MSCs, cardiomyocytes, neurons, and hepatocytes derived from hESCs, and BJ-fibroblasts (n=3). Values presented as mean±S.D. […]

MIN6 cells = assay: Ki67 proliferation staining of MIN6 cells; type: cell-based, mouse; conditions: 1.6 μM propargite vs DMSO, 4 days
Experimental: Cells were fixed with 10% (v/v) formalin for 20 min at room temperature (RT) and blocked in a solution of Mg^2+- and Ca^2+-free PBS containing 5% horse serum and 0.3% Triton-X for 1 h at room temperature and followed by incubation with primary antibody at 4 °C overnight. The following primary antibodies and dilutions have been used in this study: goat anti-SOX17 (1:500, R&D system, AF1924), rabbit anti-FOXA2 (1:500, Upstate, 07-633), goat anti-PDX1 (1:500, R&D system, AF2419), mouse anti-NKX6.1 (1:100; BCBC, Ab2024), guinea pig anti-INS (1:1000, Dako, A0564), guinea pig anti-GLUCAGON (1:500, Linco, 4031), mouse anti-Ki67 (1:100, Life technologies, 556003), mouse anti-AMYLASE (1:100, Santa Cruz, sc-46657), rabbit anti-Active Caspase-3 (1:500, BD Bioscience, 559565), mouse anti-Troponin T (1:500, Thermo Scientific, MA5-12960), mouse anti-Actin, Cardiac (1:300, Sigma, A9357), rabbit anti-TUJ1 (1:500, Covance, MRB-435P), Chicken anti-MAP2 (1:1000, Abcam, Ab5392), mouse anti-HuC/D (1:500, Invitrogen, A-21271), mouse anti-MAP2 (1:1500, Sigma, M1406), rabbit anti-TH (1:500, Pel freeze, P40101-0), rat-anti-CTIP2 (1:500, Abcam, ab18465), goat anti-FOXA2 (1:200, R&D, 463783). Donkey anti-guinea pig, mouse, goat, rabbit or chicken secondary antibodies conjugated with Alexa-Fluor-488, Alexa-Fluor-594 or Alexa-Fluor-647 fluorophore (1:500, Life technologies) were used. […]

mouse pancreatic β-cells = assay: CD-1 mice treated by intraperitoneal injection for 5 days; type: in vivo
Experimental: All animal work has been approved by IACUC committee of Weill Cornell Medical College. CD-1 adult male mice were treated with different doses of propargite or vehicle (corn oil) through intraperitoneal injection for 5 days. Fasting blood glucose level were monitored every day using Abbott FreeStyle Lite blood glucose monitoring system. Then, CD-1 adult male mice were treated with 12 mg/kg propargite or vehicle (corn oil) through intraperitoneal injection for 5 days. Fasting blood was collected via tail nicking following 14–16 h of fasting with ad libitum access to drinking water. Serum mouse insulin levels were assessed by ELISA (80-INSMR-CH01, Alpco). Mice were then killed. The pancreases were embedded in OCT. The tissue was then sectioned at 5 μm for immunohistochemistry staining analysis of DNA damage marker γ-H2A.X and β-cell marker INS.

INS-GFP+ cells = assay: RNA-seq of INS-GFP+ cells; type: cell-based, human; conditions: 1.6 µM propargite-treated INS-GFP+ cells
From the text: The INS-GFP^+ cells were sorted and RNA from the sorted cells was extracted with Absolutely RNA Nanoprep kit (Agilent Technologies, 400753). The RNA quality was validated with a bioanalyzer (Agilent). The cDNA libraries were synthesized using the TruSeq RNA Sample Preparation kit (Illumina) and sequenced in single-read with the HiSeq2000/1000 sequencer (Illumina) at Weill Cornell Genomics Resources Core Facility. The reads were aligned to the human hg19 reference genome with Tophat2[48]. Gene expression data were analyzed with Cufflinks[49]. To generate heat maps displaying the differential gene expression patterns of different samples, the RPKM values were normalized per gene over all samples. The heat maps were then generated by Heatmap.2 in the R plots package. David functional annotation tool[50] was used for gene ontology analysis and Ingenuity Pathway Analysis tool was used for pathway analysis.

[1] = 12 mg/kg daily for 5 days, intraperitoneal, CD-1 mice

## 2-(4-tert-butylphenoxy)-cyclohexyl prop-2-yne-1-sulfonate [propargite]
A1AT+ hepatocytes
  IC50: 13 µM
MIN6 cells
  percentage of Ki67+/INS+ cells: No significant difference
Mouse pancreatic β-cells; [1]
  blood glucose level: lightly increased
  body weight: without significantly affecting
  insulin levels in the plasma of fasted mice: significant reduction
Mouse pancreatic β-cells; 12 mg/kg, mouse pancreas
  percentage of γ-H2AX+/INS+ in INS+ cells (DNA damage): significant increase
INS-GFP+ cells
  fold-change of upregulated DNA damage genes (DDIT3, GADD45A): > 3
